The record followed here is ChEMBL document CHEMBL1147781, “Design, synthesis and in vitro antimalarial activity of an acylhydrazone library” (Bioorg Med Chem Lett, 2006).

In this assay the test system is Plasmodium falciparum. Put plainly: Growth inhibition of chloroquine-resistant Plasmodium falciparum FcB1 at 1 uM. In kind it is functional.
For orientation: inhibition means the percentage by which the read-out fell short of the control. Read a low inhibition as a weak effect. In turn, `COc1ccc(O)c(/C=N/NC(=O)Cc2ccccc2)c1` gave an inhibition at 1 µM of 45%.

Compound `CCN(CC)c1ccc(/C=N/NC(=O)c2ccc(O)cc2)c(O)c1` registered an inhibition at 1 µM of 12%.

Compound `O=C(N/N=C/c1cc(Br)ccc1O)c1cccs1` gave an inhibition at 1 µM of 38%.

As to `CCN(CC)c1ccc(/C=N/NC(=O)c2ccc(Cl)cc2)c(O)c1`, 1 µM produced 45% inhibition.

The compound `COc1ccc(C(=O)N/N=C/c2cc(Br)ccc2O)cc1` displayed an inhibition at 1 µM of 29%.

Take `COc1cccc(/C=N/NC(C)=O)c1O`: the inhibition at 1 µM was 33%.

`COc1ccc(C(=O)N/N=C/c2ccc(OC)cc2O)cc1`: 1 µM produced 9% inhibition.

Compound `CC(=O)N/N=C/c1cc(C(C)(C)C)ccc1O` returned an inhibition at 1 µM of 32%.

The compound `Cc1ccc(O)c(/C=N/NC(=O)c2ccccc2)c1` gave an inhibition at 1 µM of 49%.

In the case of `O=C(N/N=C/c1ccccc1O)c1ccco1`, the inhibition at 1 µM was found to be 21%.

Compound `COc1ccc(/C=N/NC(=O)c2ccc([N+](=O)[O-])cc2)c(O)c1` yielded an inhibition at 1 µM of 45%.

For the compound `COc1cccc(/C=N/NC(=O)c2ccc([N+](=O)[O-])cc2)c1O`, the inhibition at 1 µM turned out to be 32%.

For `O=C(N/N=C/c1cc(O)ccc1O)c1cccnc1`, the inhibition at 1 µM was found to be 7%.

As to `COc1ccc(O)c(/C=N/NC(=O)c2ccco2)c1`, the inhibition at 1 µM was determined as 33%.

Consider `COc1ccc(C(=O)N/N=C/c2cc(O)ccc2O)cc1`, for which the inhibition at 1 µM is 39%.

As to `CC(C)(C)c1ccc(C(=O)N/N=C/c2cc(O)ccc2O)cc1`, 1 µM produced 38% inhibition.

Regarding `COc1ccc(C(=O)N/N=C/c2cc(C)ccc2O)cc1`, the inhibition at 1 µM amounted to 28%.

On to `O=C(N/N=C/c1cc([N+](=O)[O-])ccc1O)c1ccco1`, for which the inhibition at 1 µM amounted to 16%.

`O=C(N/N=C/c1cc([N+](=O)[O-])ccc1O)c1ccncc1`: the inhibition at 1 µM was 15%.

As to `O=C(N/N=C/c1cc(Br)ccc1O)c1ccncc1`, the inhibition at 1 µM amounted to 29%.

Turning to `COc1ccc(O)c(/C=N/NC(=O)c2ccncc2)c1`, 1 µM produced 34% inhibition.

`COc1ccc(O)c(/C=N/NC(=O)c2ccccc2)c1` registered an inhibition at 1 µM of 38%.

In turn, `O=C(N/N=C/c1cc(O)ccc1O)c1ccncc1` showed an inhibition at 1 µM of 26%.

In turn, `O=C(N/N=C/c1cc(O)ccc1O)c1cccs1` gave an inhibition at 1 µM of 19%.

Compound `COc1ccc(O)c(/C=N/NC(C)=O)c1` had an inhibition at 1 µM of 3%.

Consider `COc1ccc(O)c(/C=N/NC(=O)c2ccc(C(C)(C)C)cc2)c1`, for which testing at 1 µM gave an inhibition of 47%.

Consider `O=C(N/N=C/c1cc([N+](=O)[O-])ccc1O)c1cccs1`, for which 1 µM produced 21% inhibition.

Regarding `CC(C)(C)c1ccc(O)c(/C=N/NC(=O)c2ccc(O)cc2)c1`, the inhibition at 1 µM was found to be 31%.

In turn, `O=C(N/N=C/c1cc([N+](=O)[O-])ccc1O)c1cccnc1` gave an inhibition at 1 µM of 19%.

`O=C(N/N=C/c1cc(O)ccc1O)c1ccccc1`: testing at 1 µM gave an inhibition of 0%.

In turn, `COc1ccc(O)c(/C=N/NC(=O)c2ccc([N+](=O)[O-])cc2)c1` returned an inhibition at 1 µM of 14%.

Compound `CCN(CC)c1ccc(/C=N/NC(=O)c2cccnc2)c(O)c1` yielded an inhibition at 1 µM of 2%.

As to `O=C(N/N=C/c1cc(Br)ccc1O)c1ccc(O)cc1`, 1 µM produced 10% inhibition.

For the compound `CCN(CC)c1ccc(/C=N/NC(=O)c2cccs2)c(O)c1`, at 1 µM the inhibition was 37%.

Take `CC(=O)N/N=C/c1cc([N+](=O)[O-])ccc1O`: testing at 1 µM gave an inhibition of 22%.

`COc1ccc(O)c(/C=N/NC(=O)c2ccc(Cl)cc2)c1` showed an inhibition at 1 µM of 24%.

As for `CC(C)(C)c1ccc(O)c(/C=N/NC(=O)c2cccnc2)c1`, testing at 1 µM gave an inhibition of 32%.

Turning to `CCN(CC)c1ccc(/C=N/NC(=O)c2ccc(OC)cc2)c(O)c1`, at 1 µM the inhibition was 39%.

With `Cc1ccc(O)c(/C=N/NC(=O)c2ccncc2)c1`, the inhibition at 1 µM came to 8%.

The compound `COc1ccc(O)c(/C=N/NC(=O)c2cccs2)c1` displayed an inhibition at 1 µM of 24%.

`Cc1ccc(O)c(/C=N/NC(=O)c2cccnc2)c1` came in with an inhibition at 1 µM of 33%.

`COc1ccc(/C=N/NC(=O)c2ccc(O)cc2)c(O)c1`: the inhibition at 1 µM turned out to be 14%.

Consider `O=C(Cc1ccccc1)N/N=C/c1cc(O)ccc1O`, for which the inhibition at 1 µM amounted to 4%.

`COc1ccc(/C=N/NC(C)=O)c(O)c1` had an inhibition at 1 µM of 4%.

Regarding `COc1ccc(/C=N/NC(=O)c2ccco2)c(O)c1`, the inhibition at 1 µM was 45%.

Regarding `O=C(N/N=C/c1cc(Br)ccc1O)c1ccc(Cl)cc1`, at 1 µM the inhibition was 36%.

In turn, `CCN(CC)c1ccc(/C=N/NC(=O)c2ccco2)c(O)c1` gave an inhibition at 1 µM of 23%.

Turning to `COc1ccc(/C=N/NC(=O)c2ccncc2)c(O)c1`, the inhibition at 1 µM came to 35%.

For the compound `CCN(CC)c1ccc(/C=N/NC(C)=O)c(O)c1`, the inhibition at 1 µM was 34%.

The compound `COc1ccc(O)c(/C=N/NC(=O)c2cccnc2)c1` showed an inhibition at 1 µM of 24%.

The compound `Cc1ccc(O)c(/C=N/NC(=O)c2cccs2)c1` showed an inhibition at 1 µM of 23%.

`CC(=O)N/N=C/c1cc(C)ccc1O`: the inhibition at 1 µM came to 32%.

`COc1cccc(/C=N/NC(=O)c2ccc(Cl)cc2)c1O` displayed an inhibition at 1 µM of 36%.

In the case of `CC(=O)N/N=C/c1cc(Br)ccc1O`, at 1 µM the inhibition was 17%.

For the compound `CC(C)(C)c1ccc(C(=O)N/N=C/c2cc([N+](=O)[O-])ccc2O)cc1`, the inhibition at 1 µM stood at 36%.

Take `COc1cccc(/C=N/NC(=O)Cc2ccccc2)c1O`: the inhibition at 1 µM is 30%.

`O=C(N/N=C/c1ccc(O)cc1O)c1ccc([N+](=O)[O-])cc1` gave an inhibition at 1 µM of 18%.

The compound `COc1cccc(/C=N/NC(=O)c2ccc(C(C)(C)C)cc2)c1O` registered an inhibition at 1 µM of 39%.

As to `COc1cccc(/C=N/NC(=O)c2cccs2)c1O`, 1 µM produced 16% inhibition.

As for `O=C(N/N=C/c1cc(O)ccc1O)c1ccco1`, 1 µM produced 21% inhibition.

The compound `COc1ccc(C(=O)N/N=C/c2cc([N+](=O)[O-])ccc2O)cc1` gave an inhibition at 1 µM of 26%.

On to `COc1ccc(/C=N/NC(=O)c2cccs2)c(O)c1`, for which the inhibition at 1 µM amounted to 24%.

`O=C(N/N=C/c1cc(O)ccc1O)c1ccc([N+](=O)[O-])cc1` came in with an inhibition at 1 µM of 28%.

The compound `Cc1ccc(O)c(/C=N/NC(=O)c2ccc(O)cc2)c1` returned an inhibition at 1 µM of 24%.

Take `COc1cccc(/C=N/NC(=O)c2ccc(O)cc2)c1O`: the inhibition at 1 µM turned out to be 16%.

Take `O=C(N/N=C/c1cc(Br)ccc1O)c1cccnc1`: at 1 µM the inhibition was 21%.

Turning to `COc1ccc(/C=N/NC(=O)Cc2ccccc2)c(O)c1`, at 1 µM the inhibition was 41%.

Regarding `COc1cccc(/C=N/NC(=O)c2ccccc2)c1O`, the inhibition at 1 µM is 10%.

`O=C(N/N=C/c1ccc(O)cc1O)c1cccs1` gave an inhibition at 1 µM of 13%.

Turning to `O=C(N/N=C/c1ccc(O)cc1O)c1ccc(O)cc1`, the inhibition at 1 µM amounted to 15%.

Regarding `O=C(N/N=C/c1cc([N+](=O)[O-])ccc1O)c1ccc([N+](=O)[O-])cc1`, the inhibition at 1 µM came to 31%.

The compound `COc1cccc(/C=N/NC(=O)c2ccncc2)c1O` displayed an inhibition at 1 µM of 43%.

In turn, `O=C(N/N=C/c1ccc(O)cc1O)c1cccnc1` gave an inhibition at 1 µM of 23%.

The compound `O=C(N/N=C/c1cc(O)ccc1O)c1ccc(Cl)cc1` came in with an inhibition at 1 µM of 25%.

`Cc1ccc(O)c(/C=N/NC(=O)c2ccco2)c1` gave an inhibition at 1 µM of 37%.

The compound `Cc1ccc(O)c(/C=N/NC(=O)Cc2ccccc2)c1` registered an inhibition at 1 µM of 19%.

The compound `Cc1ccc(O)c(/C=N/NC(=O)c2ccc([N+](=O)[O-])cc2)c1` gave an inhibition at 1 µM of 46%.

`CC(C)(C)c1ccc(O)c(/C=N/NC(=O)c2ccncc2)c1` showed an inhibition at 1 µM of 40%.

Consider `COc1cccc(/C=N/NC(=O)c2cccnc2)c1O`, for which testing at 1 µM gave an inhibition of 32%.

Take `COc1ccc(/C=N/NC(=O)c2ccccc2)c(O)c1`: the inhibition at 1 µM was determined as 32%.

Compound `COc1ccc(C(=O)N/N=C/c2ccc(O)cc2O)cc1` registered an inhibition at 1 µM of 29%.

Consider `O=C(N/N=C/c1cc([N+](=O)[O-])ccc1O)c1ccccc1`, for which 1 µM produced 21% inhibition.

Compound `COc1ccc(C(=O)N/N=C/c2cccc(OC)c2O)cc1` registered an inhibition at 1 µM of 37%.

Consider `O=C(N/N=C/c1ccc(O)cc1O)c1ccco1`, for which at 1 µM the inhibition was 13%.

In turn, `CC(C)(C)c1ccc(C(=O)N/N=C/c2ccc(O)cc2O)cc1` came in with an inhibition at 1 µM of 37%.

The compound `CC(C)(C)c1ccc(C(=O)N/N=C/c2cc(C(C)(C)C)ccc2O)cc1` had an inhibition at 1 µM of 48%.

As for `O=C(Cc1ccccc1)N/N=C/c1cc([N+](=O)[O-])ccc1O`, the inhibition at 1 µM is 0%.

The compound `O=C(Cc1ccccc1)N/N=C/c1cc(Br)ccc1O` gave an inhibition at 1 µM of 33%.

In the case of `O=C(N/N=C/c1cc([N+](=O)[O-])ccc1O)c1ccc(O)cc1`, the inhibition at 1 µM was determined as 4%.

`CC(C)(C)c1ccc(O)c(/C=N/NC(=O)c2ccco2)c1` displayed an inhibition at 1 µM of 14%.

As to `CCN(CC)c1ccc(/C=N/NC(=O)c2ccncc2)c(O)c1`, at 1 µM the inhibition was 18%.

Regarding `O=C(N/N=C/c1cc([N+](=O)[O-])ccc1O)c1ccc(Cl)cc1`, 1 µM produced 31% inhibition.

Regarding `CC(=O)N/N=C/c1cc(O)ccc1O`, the inhibition at 1 µM stood at 25%.

As to `COc1ccc(C(=O)N/N=C/c2cc(OC)ccc2O)cc1`, testing at 1 µM gave an inhibition of 18%.

With `COc1ccc(/C=N/NC(=O)c2ccc(Cl)cc2)c(O)c1`, the inhibition at 1 µM came to 8%.

On to `COc1ccc(O)c(/C=N/NC(=O)c2ccc(O)cc2)c1`, for which the inhibition at 1 µM worked out at 20%.

`CC(C)(C)c1ccc(O)c(/C=N/NC(=O)Cc2ccccc2)c1` displayed an inhibition at 1 µM of 14%.

Regarding `COc1ccc(/C=N/NC(=O)c2ccc(C(C)(C)C)cc2)c(O)c1`, the inhibition at 1 µM stood at 43%.

`O=C(N/N=C/c1cc(Br)ccc1O)c1ccco1` came in with an inhibition at 1 µM of 35%.

In turn, `O=C(N/N=C/c1cc(Br)ccc1O)c1ccccc1` yielded an inhibition at 1 µM of 47%.

Take `O=C(N/N=C/c1ccc(O)cc1O)c1ccc(Cl)cc1`: at 1 µM the inhibition was 16%.

For `O=C(N/N=C/c1cc(O)ccc1O)c1ccc(O)cc1`, at 1 µM the inhibition was 4%.

On to `O=C(N/N=C/c1ccc(O)cc1O)c1ccccc1`, for which the inhibition at 1 µM was 14%.

`COc1ccc(/C=N/NC(=O)c2cccnc2)c(O)c1` displayed an inhibition at 1 µM of 38%.

`O=C(N/N=C/c1cc(Br)ccc1O)c1ccc([N+](=O)[O-])cc1`: the inhibition at 1 µM stood at 17%.
